Paper PMC9518248, “Inhibition of Toxoplasma gondii by 1,2,4-triazole-based compounds: marked improvement in selectivity relative to the standard therapy pyrimethamine and sulfadiazine” (Journal of Enzyme Inhibition and Medicinal Chemistry, 2022)
Converted amounts (≈) assume the structure as drawn. Like-named read-outs stand apart in the source and are kept apart here.

What was measured:
[1] = tested on: mouse fibroblasts L929 cells; parameters: method as in PMID 31022878, PMID 30744161; conditions: thiosemicarbazides 1a–27a; cited from earlier work
[2] = tested on: T. gondii RH-GFP; parameters: method as in PMID 31022878, PMID 30744161; conditions: thiosemicarbazides 1a–27a, cited from earlier work; for SI: CC30/IC50Tg; for IC50Tg: T. gondii infected Hs27 cells
[3] = tested on: T. gondii RH-GFP; test: Antiparasitic assay: T. gondii RH-GFP proliferation in Hs27 cells; assay type: cell-based, Toxoplasma gondii; conditions: for IC50: Toxoplasma gondii, read-out: IC50Tg; for SI: selectivity index, CC30 (L929)/IC50Tg
[4] = tested on: mouse fibroblasts L929 cells; test: Cell viability assay (MTT, ISO 10993-5); assay type: cell-based; conditions: 24 h, highest dilution causing 30% or higher destruction of cells
Experimental: Culture medium RPMI 1640, without phenol red (Biowest, Nuaille, France) supplemented with 10% FBS, 2 mM […] penicillin, 100 μg/mL streptomycin were used. Briefly, 1 × 10^4/well of L929 cells were placed in 96-well plates and incubated for 24 h at 37 °C and 10% CO2. Afterwards, the old culture medium was replaced with 100 μL of the compound, drug or inhibitor, diluted in culture medium and the cells treated for 24 h. Additionally, cells were treated with 0.03-4.0% concentration of DMSO as the solvent (data not shown). Then, 50 μL of 1 mg/mL of MTT solution in RPMI 1640 without phenol red was added to each well and incubated for 2 h at 37 °C and 10% CO2. Next, cell culture medium was aspirated carefully and 150 μL of DMSO was added to each well, and the plates were gently mixed. Then, 25 μL 0.1 M glycine buffer (pH 10.5) (Sigma-Aldrich) was added. The optical density at 570 nm using a multi-mode microplate reader SpectraMax® i3 (Syngen, Taipei City, Taiwan) was recorded. The results were expressed as a percentage of viability compared to untreated cells. All experiments were performed in triplicate. The reported methyl thiazolyltetrazole (MTT) method was used to study in vitro cytotoxic profile of the s-triazoles 1b-27b to the host cells (L929). Experiments were performed in accordance with the international standard IS0-10993-5:2009. […] The data for acyclic precursors 1a-27a are also included for comparison[39]^,[40].

[5] = T. gondii RH-GFP in Hs27 cells, 96 h, values above highest tested concentration extrapolated

In the case of `Cc1nc[nH]c1C(=O)NNC(=S)Nc1ccc(I)cc1` [12a], the CC30 [1] is given as 71.58 µg/mL (≈ 178 µM), the SI [2] is given as 3.25 and the IC50Tg [2] is given as 22.01 µg/mL (≈ 54.9 µM).

For `Cc1nc[nH]c1C(=O)NNC(=S)Nc1cc(F)ccc1F` [13a], the CC30 [1] is given as 158.49 µg/mL (≈ 509 µM), the SI [2] is given as 2.95 and the IC50Tg [2] is given as 53.7 µg/mL (≈ 172 µM).

Compound `Cc1nc[nH]c1-c1n[nH]c(=S)n1-c1cc(F)ccc1F` [13b, 4–(2,5-difluorophenyl)-5–(4-methylimidazol-5-yl)-1,2,4-triazole-3-thione] has an IC50 [3, 5] of 224 µg/mL (≈ 765 µM), an SI [3] of 11.14 and a melting point of 253.9 °C.

In the case of `Cc1ccccc1NC(=S)NNC(=O)c1[nH]cnc1C` [14a], the CC30 [1] is listed as 288.4 µg/mL (≈ 997 µM), the SI [2] is listed as 1.92 and the IC50Tg [2] is listed as “∼150.31 µg/mL”.

For `Cc1cccc(NC(=S)NNC(=O)c2[nH]cnc2C)c1` [15a], the CC30 [1] is given as 50.12 µg/mL (≈ 173 µM), the SI [2] is given as 1.35 and the IC50Tg [2] is given as 37.15 µg/mL (≈ 128 µM).

For `Cc1ccc(NC(=S)NNC(=O)c2[nH]cnc2C)cc1` [16a], the CC30 [1] is listed as 34.67 µg/mL (≈ 120 µM), the SI [2] is listed as 0.60 and the IC50Tg [2] is listed as “∼57.58 µg/mL”.

`Cc1ccc(-n2c(-c3[nH]cnc3C)n[nH]c2=S)cc1` [16b] showed an IC50 [3, 5] of 110 µg/mL (≈ 406 µM), an SI [3] of 10.11 and a CC30 [4] of 1113.53 µg/mL (≈ 4100 µM).

For `Cc1ccc(NC(=S)NNC(=O)c2[nH]cnc2C)cc1Cl` [17a], the CC30 [1] is given as 28.18 µg/mL (≈ 87 µM), the SI [2] is given as 1.51 and the IC50Tg [2] is given as 18.62 µg/mL (≈ 57.5 µM).

In the case of `COc1ccccc1NC(=S)NNC(=O)c1[nH]cnc1C` [18a], the CC30 [1] is given as 138.04 µg/mL (≈ 452 µM), the SI [2] is given as 4.17 and the IC50Tg [2] is given as 33.11 µg/mL (≈ 108 µM).

Work on `COc1ccccc1-n1c(-c2[nH]cnc2C)n[nH]c1=S` [18b, 4–(2-methoxyphenyl)-5–(4-methylimidazol-5-yl)-1,2,4-triazole-3-thione] yielded an IC50 [3, 5] of 93.2 µg/mL (≈ 324 µM) and a melting point of 145.2 °C.

In the case of `COc1cccc(NC(=S)NNC(=O)c2[nH]cnc2C)c1` [19a], the CC30 [1] is listed as 165.96 µg/mL (≈ 543 µM), the SI [2] is listed as 2.08 and the IC50Tg [2] is listed as 79.65 µg/mL (≈ 261 µM).

`COc1cccc(-n2c(-c3[nH]cnc3C)n[nH]c2=S)c1` [19b, 4–(3-methoxyphenyl)-5–(4-methylimidazol-5-yl)-1,2,4-triazole-3-thione] showed an IC50 [3, 5] of 96.8 µg/mL (≈ 337 µM) and a melting point of 228.8 °C.

For `COc1ccc(NC(=S)NNC(=O)c2nc[nH]c2C)cc1` [20a], the CC30 [1] is listed as 389.05 µg/mL (≈ 1270 µM), the SI [2] is listed as 3.41 and the IC50Tg [2] is listed as 113.99 µg/mL (≈ 373 µM).

In the case of `COc1ccc(NC(=S)NNC(=O)c2[nH]cnc2C)cc1OC` [21a], the CC30 [1] is given as greater than 500 µg/mL and the IC50Tg [2] is given as “∼174.98 µg/mL”.

For `CCOc1ccc(NC(=S)NNC(=O)c2[nH]cnc2C)cc1` [22a], the CC30 [1] is given as 500 µg/mL (≈ 1570 µM), the SI [2] is given as 5.25 and the IC50Tg [2] is given as 95.28 µg/mL (≈ 298 µM).

In the case of `CC(=O)c1cccc(NC(=S)NNC(=O)c2[nH]cnc2C)c1` [23a], the CC30 [1] is given as 206.54 µg/mL (≈ 651 µM), the SI [2] is given as 2.16 and the IC50Tg [2] is given as 95.50 µg/mL (≈ 301 µM).

`CC(=O)c1cccc(-n2c(-c3[nH]cnc3C)n[nH]c2=S)c1` [23b, 4–(3-acetylphenyl)-5–(4-methylimidazol-5-yl)-1,2,4-triazole-3-thione] showed an IC50 [3, 5] of 141 µg/mL (≈ 469 µM), an SI [3] of 17.79 and a melting point of 151.9 °C.

For `Cc1nc[nH]c1C(=O)NNC(=S)Nc1c(C(C)C)cccc1C(C)C` [24a], the CC30 [1] is listed as 190.55 µg/mL (≈ 530 µM), the SI [2] is listed as 1.95 and the IC50Tg [2] is listed as 97.72 µg/mL (≈ 272 µM).

For `Cc1nc[nH]c1C(=O)NNC(=S)Nc1ccc(N(C)C)cc1` [25a], the CC30 [1] is listed as 112.2 µg/mL (≈ 352 µM), the SI [2] is listed as 0.68 and the IC50Tg [2] is listed as “∼164.70 µg/mL”.

In the case of `CCN(CC)c1ccc(NC(=S)NNC(=O)c2[nH]cnc2C)cc1` [26a], the CC30 [1] is given as 63.1 µg/mL (≈ 182 µM), the SI [2] is given as 2.46 and the IC50Tg [2] is given as 25.70 µg/mL (≈ 74.2 µM).

Work on `CCc1nc(N)nc(N)c1-c1ccc(Cl)cc1` [PYR, pyrimethamine] yielded an IC50 [3, 5] of 1.79 µg/mL (≈ 7.2 µM), an SI [3] of 6.34 and a CC30 [4] of 11.37 µg/mL (≈ 45.7 µM).

Compound `Nc1ccc(S(=O)(=O)Nc2ncccn2)cc1` [SDZ, sulfadiazine] has an IC50 ([3]; HS27, 96 h) of 4860 µg/mL (≈ 19400 µM), an SI [3] of 0.44 and a CC30 [4] of 2161.72 µg/mL (≈ 8640 µM).

For `COc1cc(Cc2cnc(N)nc2N)cc(OC)c1OC` [TRI, trimethoprim, reference compound], the IC50 ([3]; HS27, 96 h) was 20.9 µg/mL (≈ 72.1 µM), the SI [3] was 16.07 and the CC30 [4] was 336.20 µg/mL (≈ 1160 µM).
